In patent US20080312287A1, “Compound and Methods For the Treatment of Cancer and Malaria” (University of Washington, priority 2005, published 2008):
Like-named read-outs stand apart in the source and are kept apart here.

Assays:
[1] = system: P. falciparum K1; test: P. falciparum ED50 determination, [3H]-hypoxanthine incorporation, strain K1; format: cell-based, Plasmodium falciparum
Source text: (§1) Plasmodium strains. The P. falciparum strains used in this study were 3D7 (Netherlands, sensitive) provided by Dr. Pradipsinh Rathod from the University of Washington and K1 (Thailand, ChQ-R, Pyr-R) obtained from the MR4Unit of the American Type Culture Collection (ATCC, Manassas, Va.).
(§2) P. falciparum culture. Strains of P. falciparum were sustained in vitro based on experimental techniques as described by Trager and Jensen.^26 Cultures were maintained in RPMI-1640 (Sigma, St. Louis, […].) with 2 mM L-glutamine, 25 mM HEPES, 33 mM NaHCO3, 20 μg/ml gentamicin sulfate and 20% (v/v) heat-inactivated human plasma type A+ (R^P-20P). Type A+ erythrocytes were obtained from lab donors, washed three times with RPMI, re-suspended in 50% RPMI, and stored at 4° C. Parasites were grown in 10 mL of a 2% hematocrit/RP-20P (v/v) in 50-mL flasks under a 5% CO2, 5% O2, and 90% N2 atmosphere.
(§3) P. falciparum ED50 determination. One […]L of PFTI dissolved in DMSO was added to each well of a 96-well plate followed by the addition of 200 μL of P. falciparum culture at parasitemia and hematocrit of 0.5%. Plates were flushed with 5% CO2, 5% O2, and 90% N2 then incubated at 37° C. for 48 hr. [8-^3H]-hypoxanthine (0.3 μCi, 20 Ci/mmol, American Radiolabeled Chemicals) in 30 μL RP-20P was added to cultures and incubated for an additional 24 hours. Cells were harvested onto filter mats by a Multiharvester (Skatron, Sunnyvale, Calif.) and the radioactivity incorporated into the parasites was counted on a β-scintillation counter. The background level detected with uninfected erythrocytes was subtracted from the data. The ^3H-incorporation into infected RBCs with 1 μL DMSO vehicle alone represents 100% malaria growth. ED50 values were determined by linear regression analysis of the plots of ^3H-hypoxanthine incorporation versus concentration of compound.

[2] = system: P. falciparum 3D7; test: P. falciparum ED50 determination, [3H]-hypoxanthine incorporation, strain 3D7; format: cell-based, Plasmodium falciparum
Source text: as §1, §2, §3

[3] = target: T1, PfPFT (Plasmodium falciparum, UniProt Q8I503+Q8IHP6); test: PfPFT inhibition, scintillation proximity assay with partially purified PfPFT; format: biochemical; settings: for inhibition at 0.005 µM: read-out: % Inhibition of PfPFT at 5 nM, inhibitor at 5 nM; for inhibition at 0.05 µM: read-out: % Inhibition of PfPFT at 50 nM, inhibitor at 50 nM
T1 sequence (Q8I503 1-521): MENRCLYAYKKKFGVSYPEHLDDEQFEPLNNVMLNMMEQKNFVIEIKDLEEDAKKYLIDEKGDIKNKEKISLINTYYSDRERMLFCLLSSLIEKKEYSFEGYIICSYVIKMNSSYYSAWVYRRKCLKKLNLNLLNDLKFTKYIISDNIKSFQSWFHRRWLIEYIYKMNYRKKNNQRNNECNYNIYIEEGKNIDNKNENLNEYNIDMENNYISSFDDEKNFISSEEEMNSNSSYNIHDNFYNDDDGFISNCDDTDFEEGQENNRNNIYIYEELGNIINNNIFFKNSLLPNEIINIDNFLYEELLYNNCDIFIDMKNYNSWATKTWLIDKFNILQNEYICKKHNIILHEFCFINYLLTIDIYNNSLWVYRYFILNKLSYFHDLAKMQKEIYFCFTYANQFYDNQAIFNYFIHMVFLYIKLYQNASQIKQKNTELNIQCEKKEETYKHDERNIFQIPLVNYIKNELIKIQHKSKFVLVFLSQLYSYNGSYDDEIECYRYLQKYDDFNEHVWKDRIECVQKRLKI
T1 sequence (Q8IHP6 1-923): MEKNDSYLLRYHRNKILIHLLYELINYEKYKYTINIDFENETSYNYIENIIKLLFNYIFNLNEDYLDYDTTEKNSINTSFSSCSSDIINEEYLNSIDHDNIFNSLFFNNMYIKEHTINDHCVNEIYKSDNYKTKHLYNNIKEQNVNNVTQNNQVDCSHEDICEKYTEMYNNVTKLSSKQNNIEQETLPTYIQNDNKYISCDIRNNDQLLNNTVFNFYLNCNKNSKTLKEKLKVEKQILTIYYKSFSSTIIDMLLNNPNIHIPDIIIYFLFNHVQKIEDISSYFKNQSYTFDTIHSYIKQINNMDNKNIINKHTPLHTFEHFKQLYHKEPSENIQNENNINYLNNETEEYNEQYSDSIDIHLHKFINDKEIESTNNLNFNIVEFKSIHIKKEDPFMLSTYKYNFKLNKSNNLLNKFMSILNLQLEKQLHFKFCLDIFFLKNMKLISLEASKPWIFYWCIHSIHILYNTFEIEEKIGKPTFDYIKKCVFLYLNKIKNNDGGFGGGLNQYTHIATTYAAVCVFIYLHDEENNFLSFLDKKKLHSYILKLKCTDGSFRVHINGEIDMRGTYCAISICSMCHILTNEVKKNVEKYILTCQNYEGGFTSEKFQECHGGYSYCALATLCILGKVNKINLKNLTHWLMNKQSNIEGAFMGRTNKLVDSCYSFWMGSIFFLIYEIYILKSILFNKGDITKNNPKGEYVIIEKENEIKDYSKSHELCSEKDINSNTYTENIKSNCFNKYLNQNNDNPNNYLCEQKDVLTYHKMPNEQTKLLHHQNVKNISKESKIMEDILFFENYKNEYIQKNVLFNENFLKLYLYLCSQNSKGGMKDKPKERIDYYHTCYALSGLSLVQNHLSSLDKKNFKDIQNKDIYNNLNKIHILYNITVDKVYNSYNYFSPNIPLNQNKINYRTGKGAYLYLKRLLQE

[4] = Plasmodium falciparum, K1, strain K1, concentration decreasing hypoxanthine incorporation into parasites twofold, read-out: ED50 K1
[5] = Plasmodium falciparum, 3D7, strain 3D7, concentration decreasing hypoxanthine incorporation into parasites twofold, read-out: ED50 3D7

Work on `CC(=O)N1CCC(CN(CCN(Cc2cncn2C)c2ccc(C#N)cc2)S(=O)(=O)c2cn(C)cn2)CC1` [Compound 8t, 1-Methyl-1H-imidazole-4-sulfonic acid (1-acetyl-piperidin-4-ylmethyl)-{2-[(4-cyano-phenyl)-(3-methyl-3H-imidazol-4-ylmethyl)-amino]-ethyl}-amide] yielded an EC50 [1, 4] of 3500 nM, an EC50 [2, 5] of 5000 nM and an inhibition at 0.005 µM [3] of 8%. For the same compound, the inhibition at 0.05 µM [3] was 44%.

In the case of `Cc1ccc(CN(CCN(Cc2cncn2C)c2ccc(C#N)cc2)S(=O)(=O)c2cn(C)cn2)cc1` [Compound 8z, 1-Methyl-1H-imidazole-4-sulfonic acid {2-[(4-cyano-phenyl)-(3-methyl-3H-imidazol-4-ylmethyl)-amino]-ethyl}-(4-methyl-benzyl)-amide], the EC50 ([1]; Plasmodium falciparum, K1, read-out: ED50 K1) is reported as > 5000 nM, the EC50 ([2]; Plasmodium falciparum, 3D7, read-out: ED50 3D7) is reported as 2700 nM and the inhibition at 0.005 µM [3] is reported as 45%. It also gave an inhibition at 0.05 µM [3] of 54%.

With `Cn1cnc(S(=O)(=O)N(CCN(Cc2cncn2C)c2ccc(C#N)cc2)Cc2cccc(C#N)c2)c1` [Compound 8ad, 1-Methyl-1H-imidazole-4-sulfonic acid (3-cyano-benzyl)-{2-[(4-cyano-phenyl)-(3-methyl-3H-imidazol-4-ylmethyl)-amino]-ethyl}-amidem-cyanobenzyl] the EC50 ([1]; strain K1, concentration decreasing hypoxanthine incorporation into parasites twofold, read-out: ED50 K1) was 1800 nM, the EC50 ([2]; strain 3D7, concentration decreasing hypoxanthine incorporation into parasites twofold, read-out: ED50 3D7) was 350 nM and the “% Inhibition of PfPFT at 5 nM” value ([3]; inhibitor at 5 nM) was 45%. For the same compound, the “% Inhibition of PfPFT at 50 nM” value ([3]; inhibitor at 50 nM) was 89%.

In the case of `Cn1cnc(S(=O)(=O)N(CCN(Cc2cncn2C)c2ccc(C#N)cc2)Cc2ccncc2)c1` [Compound 8ac, 1-Methyl-1H-imidazole-4-sulfonic acid {2-[(4-cyano-phenyl)-(3-methyl-3H-imidazol-4-ylmethyl)-amino]-ethyl}-pyridin-4-ylmethyl-amide], the EC50 [1, 4] is reported as 5000 nM, the EC50 [2, 5] is reported as 3700 nM and the inhibition at 0.005 µM [3] is reported as 22%. The inhibition at 0.05 µM [3] was 62%.

For `C=C(Br)CN(CCN(Cc1cncn1C)c1ccc(C#N)cc1)S(=O)(=O)c1cn(C)cn1` [Compound 8n, 1-Methyl-1H-imidazole-4-sulfonic acid (2-bromo-allyl)-{2-[(4-cyano-phenyl)-(3-methyl-3H-imidazol-4-ylmethyl)-amino]-ethyl}-amide], the EC50 [1, 4] was > 5000 nM, the EC50 [2, 5] was > 5000 nM and the inhibition at 0.005 µM [3] was 25%. For the same compound, the inhibition at 0.05 µM [3] was 80%.

`Cn1cncc1CN(CCN(Cc1ccccc1)S(=O)(=O)c1cccc2cccnc12)c1ccc(C#N)cc1` [Compound 8h, Quinoline-8-sulfonic acid benzyl-{2-[(4-cyano-phenyl)-(3-methyl-3H-imidazol-4-ylmethyl)-amino]-ethyl}-amide] gave an EC50 [1, 4] of 2400 nM, an EC50 [2, 5] of 2100 nM and an inhibition at 0.005 µM [3] of 14%. The inhibition at 0.05 µM [3] was 35%.

Work on `Cn1cnc(S(=O)(=O)N(CCN(Cc2cncn2C)c2ccc(C#N)cc2)CC2CCOCC2)c1` [Compound 8r, 1-Methyl-1H-imidazole-4-sulfonic acid {2-[(4-cyano-phenyl)-(3-methyl-3H-imidazol-4-ylmethyl)-amino]-ethyl}-(tetrahydro-pyran-4-ylmethyl)-amide] yielded an EC50 [1, 4] of 400 nM, an EC50 [2, 5] of 575 nM and an inhibition at 0.005 µM [3] of 28%. It also gave an inhibition at 0.05 µM [3] of 84%.

In the case of `CC(C)C(=O)N1CCC(CN(CCN(Cc2cncn2C)c2ccc(C#N)cc2)S(=O)(=O)c2cn(C)cn2)CC1` [Compound 8u, 1-Methyl-1H-imidazole-4-sulfonic acid {2-[(4-cyano-phenyl)-(3-methyl-3H-imidazol-4-ylmethyl)-amino]-ethyl}-(1-isobutyryl-piperidin-4-ylmethyl)-amide], the EC50 [1, 4] is reported as 180 nM, the EC50 [2, 5] is reported as 230 nM and the inhibition at 0.005 µM [3] is reported as 57%. The inhibition at 0.05 µM [3] was 92%.

For `O=S(=O)(c1ccc2ccccc2c1)N(CCN(Cc1cnc[nH]1)c1ccccc1)Cc1ccccc1` [Compound 3e, Naphthalene-2-sulfonic acid benzyl-{2-[(3H-imidazol-4-ylmethyl)-phenyl-amino]-ethyl}-amide], the inhibition at 0.05 µM [3] was 0%.

Work on `Cn1cnc(S(=O)(=O)N(CCN(Cc2cncn2C)c2ccc(C#N)cc2)Cc2cccc(-c3ccccc3)c2)c1` [Compound 8af, 1-Methyl-1H-imidazole-4-sulfonic acid biphenyl-3-ylmethyl-{2-[(4-cyano-phenyl)-(3-methyl-3H-imidazol-4-ylmethyl)-amino]-ethyl}-amide] yielded an EC50 [1, 4] of 3250 nM, an EC50 [2, 5] of 2400 nM and an inhibition at 0.005 µM [3] of 56%. The inhibition at 0.05 µM [3] was 93%.

With `C=C(C)CN(CCN(Cc1cncn1C)c1ccc(C#N)cc1)S(=O)(=O)c1cn(C)cn1` [Compound 8m, 1-Methyl-1H-imidazole-4-sulfonic acid {2-[(4-cyano-phenyl)-(3-methyl-3H-imidazol-4-ylmethyl)-amino]-ethyl}-(2-methyl-allyl)-amide] the EC50 [1, 4] was > 5000 nM, the EC50 [2, 5] was > 5000 nM and the inhibition at 0.005 µM [3] was 6%. For the same compound, the inhibition at 0.05 µM [3] was 77%.

Compound `Cc1ccc(CS(=O)(=O)N(CCN(Cc2cnc[nH]2)c2ccccc2)Cc2ccccc2)cc1` [Compound 3d, N-Benzyl-N-{2-[(3H-imidazol-4-ylmethyl)-phenyl-amino]-ethyl}-C-p-tolyl-methanesulfonamide] has an inhibition at 0.05 µM [3] of 3%.

With `Cn1cnc(S(=O)(=O)N(CCN(Cc2cnc[nH]2)c2ccc(Br)cc2)Cc2ccccc2)c1` [Compound 8a, 1-Methyl-1H-imidazole-4-sulfonic acid benzyl-{2-[(4-bromo-phenyl)-(3H-imidazol-4-ylmethyl)-amino]-ethyl}-amide] the inhibition at 0.05 µM [3] was 80%.

In the case of `CN(C)c1cccc2c(S(=O)(=O)N(CCN(Cc3cnc[nH]3)c3ccccc3)Cc3ccccc3)cccc12` [Compound 3g, 5-Dimethylamino-naphthalene-1-sulfonic acid benzyl-{2-[(3H-imidazol-4-ylmethyl)-phenyl-amino]-ethyl}-amide], the inhibition at 0.05 µM [3] is reported as 0%.

Compound `Cn1cnc(S(=O)(=O)N(CCN(Cc2cnc[nH]2)c2ccccc2)Cc2ccccc2)c1` [Compound 3c, 1-Methyl-1H-imidazole-4-sulfonic acid benzyl-{2-[(3H-imidazol-4-ylmethyl)-phenyl-amino]-ethyl}-amide] has an inhibition at 0.05 µM [3] of 32%.

Compound `O=S(=O)(c1cccc2cccnc12)N(CCN(Cc1cnc[nH]1)c1ccccc1)Cc1ccccc1` [Compound 3f, Quinoline-8-sulfonic acid benzyl-{2-[(3H-imidazol-4-ylmethyl)-phenyl-amino]-ethyl}-amide] has an inhibition at 0.05 µM [3] of 0%.
